Test results taken from the NIST ThermoML archive (doi:10.1016/j.jct.2015.04.005).
± gives the expanded uncertainty stated by the source.

Experiments:
[1] = 102.24 kPa, Liquid, Frequency=5 MHz, Single path-length method
[2] = xn = mol fraction of the nth substance listed; details: 102.24 kPa, Liquid, x2 = 0; for speed of sound: Frequency=5 MHz, Single path-length method; for mass density: Vibrating tube method

speed of sound ([1]; 293.15 K) [m/s] | speed of sound ([1]; 298.15 K) [m/s] | speed of sound ([1]; 303.15 K) [m/s] | speed of sound ([1]; 308.15 K) [m/s] | speed of sound ([1]; 313.15 K) [m/s] | speed of sound ([1]; 318.15 K) [m/s] | speed of sound ([1]; 323.15 K) [m/s] | speed of sound ([1]; 328.15 K) [m/s] | speed of sound ([1]; 333.15 K) [m/s] | speed of sound ([1]; 338.15 K) [m/s] | speed of sound ([1]; 343.15 K) [m/s] | speed of sound ([2]; 313.15 K) [m/s] | mass density ([2]; 323.15 K) [kg/m3] | speed of sound ([2]; 328.15 K) [m/s] | mass density ([2]; 328.15 K) [kg/m3] | speed of sound ([2]; 333.15 K) [m/s] | mass density ([2]; 333.15 K) [kg/m3] | Compound
1656.9 ± 8.1 | 1638.4 ± 8.1 | 1624.6 ± 8.1 | 1607 ± 8.1 | 1588.5 ± 8.1 | 1573.2 ± 8.1 | 1558.3 ± 8.1 | 1543.7 ± 8.1 | 1527 ± 8.1 | 1507.1 ± 8.1 | 1492.6 ± 8.1 |  |  |  |  |  |  | CCC(=O)[O-].C[NH2+]CCO [2-hydroxy-N-methylethanaminium propionate]
 |  |  |  |  |  |  |  |  |  |  | 1528.9 ± 8 | 988 ± 1.7 | 1547.4 ± 8 | 985.7 ± 1.7 | 1551 ± 8 | 983.2 ± 1.7 | O [water] + CCC(=O)[O-].C[NH2+]CCO
